Data: patent US20040242591A1, “Oxazolidinone derivatives as pontential antimicrobials” (priority 2001, published 2004)

Assays:
S.aureus ATCC 25923 = assay: MIC by agar incorporation method, S.aureus 25923; assay type: cell-based, Staphylococus aureus; set-up: unit not given here; conditions: Mueller Hinton agar, 10^4 CFU/spot, 18 hours
MRSA 15187 = assay: MIC by agar incorporation method, MRSA 15187; assay type: cell-based, Methicillin Resistant Staphylococcus aureus; set-up: unit not given here; conditions: Mueller Hinton agar, 10^4 CFU/spot, 24 hours
Excerpt: 2) MRSA 15187—Methicillin Resistant Staphylococcus aureus

MRSA 562 = assay: MIC by agar incorporation method, MRSA 562; assay type: cell-based, Methicillin Resistant Staphylococcus aureus; set-up: unit not given here; conditions: Mueller Hinton agar, 10^4 CFU/spot, 24 hours
MRSA 33 = assay: MIC by agar incorporation method, MRSA 33; assay type: cell-based, Methicillin Resistant Staphylococcus aureus; set-up: unit not given here; conditions: Mueller Hinton agar, 10^4 CFU/spot, 24 hours
Ent. faecalis ATCC 29212 = assay: MIC by agar incorporation method, E.faecalis 29212; assay type: cell-based, Enterococcus faecalis; set-up: unit not given here; conditions: Mueller Hinton agar, 10^4 CFU/spot, 18 hours
Excerpt: 3) Ent. faecalis ATCC 29212—Enterococcus faecalis ATCC 29212

VRE 6A = assay: MIC by agar incorporation method, VRE 6A; assay type: cell-based, Enterococcus faecium; set-up: unit not given here; conditions: Mueller Hinton agar, 10^4 CFU/spot, 18 hours
Excerpt: 4) Ent. faecium […]—Enterococcus faecium 6A Van®, Cipro®

Strep.pyog. ATCC 19615 = assay: MIC by agar incorporation method, S.pyogenes 19615; assay type: cell-based, Streptococcus pyogenes; set-up: unit not given here; conditions: Mueller Hinton agar, 10^4 CFU/spot, 18 hours
Excerpt: 6) Strep.pyog. ATCC 19615—Streptococcus pyogenes

Strep. pne. ATCC 6303 = assay: MIC by agar incorporation method, S. pneum 6303; assay type: cell-based, Streptococcus pneumoniae; conditions: Mueller Hinton agar, 10^4 CFU/spot, 18 hours
Excerpt: 5) Strep. pne. ATCC 6303—Streptococcus pneumoniae ATCC 6303

S. pneum AB 34 = assay: MIC by agar incorporation method, S. pneum AB 34; assay type: cell-based, Streptococcus pneumoniae; set-up: unit not given here; conditions: Mueller Hinton agar, 10^4 CFU/spot, 18 hours

Row | Structure (SMILES) | In Vitro (MIC) S.aureus 25923 (S.aureus ATCC 25923) | In Vitro (MIC) MRSA 15187 (MRSA 15187) | In Vitro (MIC) MRSA 562 (MRSA 562) | In Vitro (MIC) MRSA 33 (MRSA 33) | In Vitro (MIC) E.faecalis 29212 (Ent. faecalis ATCC 29212) | In Vitro (MIC) VRE 6A (VRE 6A) | In Vitro (MIC) S.pyogenes 19615 (Strep.pyog. ATCC 19615) | In Vitro (MIC) S. pneum 6303 (Strep. pne. ATCC 6303) | In Vitro (MIC) S. pneum AB 34 (S. pneum AB 34)
1 | CC(=O)NC[C@H]1CN(c2ccc(N3CCN(CC(=O)c4cccs4)CC3)c(F)c2)C(=O)O1 [Compound No. 2, (S)-N-[[3-[3-Fluoro-4-[N-1-[4-(2-thiophenoyl-methyl}]piperazinyl]phenyl]-2-oxo-5-oxazolidinyl]methyl]acetamide] | 8 | 8 | 4 | 4 | 8 | 8 | 2 | 2 µg/mL | 8
2 | CC(=O)NC[C@H]1CN(c2ccc(N3CCN(Cc4cc(Br)c([N+](=O)[O-])s4)CC3)c(F)c2)C(=O)O1 [Compound No. 4] | 2 | 1 | 1 | 2 | 2 | 2 | 4 | 4 µg/mL | 4
3 | CC(=O)NC[C@H]1CN(c2ccc(N3CCN(Cc4oc([N+](=O)[O-])cc4C)CC3)c(F)c2)C(=O)O1 [Compound No. 5] | 2 | 2 | 2 | 0.254 | 2 | 4 | 0.5 | 1 µg/mL | 1
4 | CC(=O)NC[C@H]1CN(c2ccc(N3CCN(Cc4cc(C#N)c([N+](=O)[O-])s4)CC3)c(F)c2)C(=O)O1 [Compound No. 6] | 2 | 2 | 2 | 2 | 4 | 8 | 1 | 1 µg/mL | 1
5 | CC(=O)NC[C@H]1CN(c2ccc(N3CCN(Cc4coc([N+](=O)[O-])c4)CC3)c(F)c2)C(=O)O1 [Compound No. 8, (S)-N-[[3-[3-Fluoro-4-[N-1-[4-{3-furyl(5-nitro)methyl}]piperazinyl]phenyl]-2-oxo-5-oxazolidinyl]methyl]acetamide] | 8 | 8 | 4 | 4 | 8 | 4 | 4 | 8 µg/mL | 16
6 | CC(=O)NC[C@H]1CN(c2ccc(N3CCN(Cc4cc([N+](=O)[O-])cn4C)CC3)c(F)c2)C(=O)O1 [Compound No. 11] | 4 | 4 | 4 | 4 | 4 | 4 | 2 | 2 µg/mL | 4
7 | CC(=O)NC[C@H]1CN(c2ccc(N3CCN(Cc4ccc([N+](=O)[O-])n4C)CC3)c(F)c2)C(=O)O1 [Compound No. 12, (S)-N-[[3-[3-Fluoro-4-[N-1-[4-{2-pyrrole-(1-methyl-5-nitro)methyl}]piperazinyl]phenyl]-2-oxo-5-oxazolidinyl]methyl]acetamide] | 4 | 4 | 4 | 4 | 4 | 4 | 2 | 8 µg/mL | 8
8 | CC(=O)NC[C@H]1CN(c2ccc(N3CCN(Cc4ccc([N+](=O)[O-])[nH]4)CC3)c(F)c2)C(=O)O1 [Compound No. 13, (S)-N-[[3-[3-Fluoro-4-[N-1-[4-{2-pyrrole-(5-nitro)methyl}]piperazinyl]phenyl]-2-oxo-5-oxazolidinyl]methyl]acetamide] | 4 | 2 | 4 | 4 | 4 | 4 | 1 | 4 µg/mL | 4
9 | CC(=O)NC[C@H]1CN(c2ccc(N3CCN(Cc4cc([N+](=O)[O-])cs4)CC3)c(F)c2)C(=O)O1 [Compound No. 14, (S)-N-[[3-[3-Fluoro-4-[N-1-[4-{2-thiophen-(4-nitro-)methyl-}]piperazinyl]phenyl]-2-oxo-5-oxazolidinyl]methyl]acetamide] | 0.25 | 0.25 | 0.25 | 0.25 | 4 | 2 | 0.5 | 2 µg/mL | 1
10 | COc1ccc(CN2CCN(c3ccc(N4C[C@H](CNC(C)=O)OC4=O)cc3F)CC2)o1 [Compound No. 15, (S)-N-[[3-[3-Fluoro-4-[N-1-[4-{2-furyl-(5-methoxy)methyl}]piperazinyl]phenyl]-2-oxo-5-oxazolidinyl]methyl]acetamide] | 4 | 4 | 4 | 4 | 4 | 4 | 2 | 2 µg/mL | 2

Other lines, results leading:

Row | In Vitro (MIC) S.aureus 25923 (S.aureus ATCC 25923) | In Vitro (MIC) MRSA 15187 (MRSA 15187) | In Vitro (MIC) MRSA 562 (MRSA 562) | In Vitro (MIC) MRSA 33 (MRSA 33) | In Vitro (MIC) E.faecalis 29212 (Ent. faecalis ATCC 29212) | In Vitro (MIC) VRE 6A (VRE 6A) | In Vitro (MIC) S.pyogenes 19615 (Strep.pyog. ATCC 19615) | In Vitro (MIC) S. pneum 6303 (Strep. pne. ATCC 6303) | In Vitro (MIC) S. pneum AB 34 (S. pneum AB 34) | Structure (SMILES)
11 | 8 | 4 | 4 | 4 | 4 | 4 | 1 | 1 µg/mL | 2 | CC(=O)NC[C@H]1CN(c2ccc(N3CCN(Cc4ccoc4[N+](=O)[O-])CC3)c(F)c2)C(=O)O1 [Compound No. 18, (S)-N-[[3-[3-Fluoro-4-[N-1[4-{3-furyl(2-nitro)methyl}]piperazinyl]phenyl]-2-oxo-5-oxazolidinyl]methyl]acetamide]
12 | 4 | 4 | 8 | 8 | 4 | 4 | 2 | 2 µg/mL | 2 | CC(=O)NC[C@H]1CN(c2ccc(N3CCN(Cc4cc(N(C)C)c([N+](=O)[O-])s4)CC3)c(F)c2)C(=O)O1 [Compound No. 19, (S)-N-[[3-[3-Fluoro-[N-1-[4-{2-thiophen-(4-dimethylamino-5-nitro)methyl}]piperazinyl]phenyl]-2-oxo-5-oxazolidinyl]methyl]-acetamide]
13 | 2 | 1 | 2 | 2 | 2 | 2 | 0.5 | 2 µg/mL | 2 | CC(=O)NC[C@H]1CN(c2ccc(N3CCN(Cc4cc(Br)c([N+](=O)[O-])o4)CC3)c(F)c2)C(=O)O1 [Compound No. 25, (S)-N-[[3-[3-Fluoro-4[N-1-[4-{2-Furyl-4-bromo-(nitro)methyl}]piperazinyl]-phenyl]-2-oxo-5-oxazolidinyl]methyl]acetamide]
14 | 8 | 4 | 4 | 4 | 4 | 4 | 0.5 | 0.5 µg/mL | 1 | CC(=O)NC[C@H]1CN(c2ccc(N3CCN(C(=O)c4ccc(NC(C)=O)s4)CC3)c(F)c2)C(=O)O1 [Compound No. 29, (S)-N-[[3-[3-Fluoro-1-[N-1-[4-{2-thiophenoyl-(5-acetamido)}]piperazinyl]phenyl]-2-oxo-5-oxazolidinyl]methyl]acetamide]
15 | >8 | >8 | >8 | >8 | 4 | 4 | 1 | 1 µg/mL | 1 | CC(=O)NC[C@H]1CN(c2ccc(N3CCN(C(=O)c4cc([N+](=O)[O-])[nH]n4)CC3)c(F)c2)C(=O)O1 [Compound No. 31]
16 | 1 | 1 | 0.5 | 1 | <0.25 | 0.5 |  |  |  | CC(=O)NC[C@H]1CN(c2ccc(N3CCC(CN(C)Cc4ccc([N+](=O)[O-])o4)CC3)c(F)c2)C(=O)O1 [Compound No. 95]
